Assay results published in ChEMBL document CHEMBL2202952, “Marthiapeptide A, an anti-infective and cytotoxic polythiazole cyclopeptide from a 60 L scale fermentation of the deep sea-derived Marinactinospora thermotolerans SCSIO 00652” (J Nat Prod, 2012).
In brackets after ≈: the same amount, converted by molar mass. Activity calls are given as the source filed them. The calls are words filed in the database; no cut-off is given here.

Legend:
Escherichia coli [1] = experiment: Antimicrobial activity against Escherichia coli ATCC 25922; format: functional
Staphylococcus aureus = experiment: Antimicrobial activity against Staphylococcus aureus ATCC 29213; format: functional
Bacillus thuringiensis = experiment: Antimicrobial activity against Bacillus thuringiensis; format: functional
Micrococcus luteus = experiment: Antimicrobial activity against Micrococcus luteus; format: functional
[2] = Antimicrobial activity against Aeromonas hydrophila subsp. hydrophila ATCC 7966; format: functional
Escherichia coli [3] = experiment: Antimicrobial activity against Escherichia coli DH5[alpha]; format: functional
Bacillus subtilis = experiment: Antimicrobial activity against Bacillus subtilis ATCC 6633; format: functional
MCF7 [4] = experiment: Cytotoxicity against human MCF7 cells by SRB method; format: functional, cell-based
Nucleic Acid [5] = experiment: Effect on F21T G-quadruplex DNA thermal stabilization assessed as change in melting temperature at 2 uM by FRET; format: nucleic-acid assay
NCI-H460 [6] = experiment: Potency index, ratio of IC50 for cisplatin to IC50 for test compound against human NCI-H460 cells by SRB method; format: functional
HepG2 [7] = experiment: Potency index, ratio of IC50 for cisplatin to IC50 for test compound against human HepG2 cells by SRB method; format: functional
SF-268 [8] = experiment: Potency index, ratio of IC50 for cisplatin to IC50 for test compound against human SF268 cells by SRB method; format: functional
SF-268 [9] = experiment: Cytotoxicity against human SF268 cells by SRB method; format: functional, cell-based
MCF7 [10] = experiment: Potency index, ratio of IC50 for cisplatin to IC50 for test compound against human MCF7 cells by SRB method; format: functional
NCI-H460 [11] = experiment: Cytotoxicity against human NCI-H460 cells by SRB method; format: functional, cell-based
Nucleic Acid [12] = experiment: Binding affinity to human telomeric intramolecular HTG21 G-quadruplex DNA at 20 uM by CD spectroscopy; format: nucleic-acid assay
HepG2 [13] = experiment: Cytotoxicity against human HepG2 cells by SRB method; format: functional, cell-based

Row | Structure (SMILES) | MIC (Escherichia coli [1]) | MIC (Staphylococcus aureus) | MIC (Bacillus thuringiensis) | MIC (Micrococcus luteus) | MIC [2] | MIC (Escherichia coli [3]) | MIC (Bacillus subtilis) | IC50 (MCF7 [4]) | ΔTm (Nucleic Acid [5]) | Ratio IC50 (NCI-H460 [6]) | Ratio IC50 (HepG2 [7]) | Ratio IC50 (SF-268 [8]) | IC50 (SF-268 [9]) | Ratio IC50 (MCF7 [10]) | IC50 (NCI-H460 [11]) | Activity (Nucleic Acid [12]) | IC50 (HepG2 [13])
1 | CC[C@H]1OC(=O)[C@H](C)[C@@H](O[C@H]2C[C@@](C)(OC)[C@@H](O)[C@H](C)O2)[C@H](C)[C@@H](O[C@@H]2O[C@H](C)C[C@H](N(C)C)[C@H]2O)[C@](C)(O)C[C@@H](C)C(=O)[C@H](C)[C@@H](O)[C@]1(C)O [ERYTHROMYCIN] | 32 µg/mL (≈ 43.6 µM) | 16 µg/mL (≈ 21.8 µM) | < 1 µg/mL | < 1 µg/mL | 4 µg/mL (≈ 5.45 µM) | 64 µg/mL (≈ 87.2 µM) | < 1 µg/mL |  |  |  |  |  |  |  |  |  | 
2 | NC[C@H]1O[C@H](O[C@H]2[C@H](O)[C@@H](O[C@H]3O[C@H](CO)[C@@H](O)[C@H](N)[C@H]3O)[C@H](N)C[C@@H]2N)[C@H](O)[C@@H](O)[C@@H]1O [KANAMYCIN] | 16 µg/mL (≈ 33 µM) | 8 µg/mL (≈ 16.5 µM) | 4 µg/mL (≈ 8.26 µM) | 32 µg/mL (≈ 66 µM) | < 1 µg/mL | 32 µg/mL (≈ 66 µM) | < 1 µg/mL |  |  |  |  |  |  |  |  |  | 
3 | CC[C@H](C)[C@@H]1NC(=O)[C@@H](Cc2ccccc2)NC(=O)[C@@H]2CSC(=N2)c2csc(n2)-c2csc(n2)-c2csc(n2)[C@@H](C)NC1=O [MARTHIAPEPTIDE A] | > 128 µg/mL | 8 µg/mL (≈ 12 µM) | 2 µg/mL (≈ 3 µM) | 2 µg/mL (≈ 3 µM) | > 128 µg/mL | > 128 µg/mL | 4 µg/mL (≈ 6.01 µM) | 430 nM | 0.9 °C | 5 | 5 | 5 | 380 nM | 5 | 470 nM | inactive | 520 nM
